Non-standard residues stand in square brackets, D forms with d. Residues, ends and D or L forms follow the SMILES beside them. Ahp(7-SS(2-pyridyl)) = N[C@@H](CCCCCSSc1ccccn1)C(=O)O; Aib = CC(C)(N)C(=O)O
Tests used:
Histone deacetylase 1 = Histone deacetylase 1 (Homo sapiens, UniProt Q13547); test: Inhibition of HDAC1 expressed in 293T cells; type: cell-based
[1] = Selectivity of IC50 for HDAC6 to IC50 for HDAC1
[2] = biological target: T1, Protein deacetylase HDAC6 (Homo sapiens, UniProt Q9UBN7); test: Inhibition of HDAC6 expressed in 293T cells; type: cell-based
T1 sequence (Q9UBN7 whole entry): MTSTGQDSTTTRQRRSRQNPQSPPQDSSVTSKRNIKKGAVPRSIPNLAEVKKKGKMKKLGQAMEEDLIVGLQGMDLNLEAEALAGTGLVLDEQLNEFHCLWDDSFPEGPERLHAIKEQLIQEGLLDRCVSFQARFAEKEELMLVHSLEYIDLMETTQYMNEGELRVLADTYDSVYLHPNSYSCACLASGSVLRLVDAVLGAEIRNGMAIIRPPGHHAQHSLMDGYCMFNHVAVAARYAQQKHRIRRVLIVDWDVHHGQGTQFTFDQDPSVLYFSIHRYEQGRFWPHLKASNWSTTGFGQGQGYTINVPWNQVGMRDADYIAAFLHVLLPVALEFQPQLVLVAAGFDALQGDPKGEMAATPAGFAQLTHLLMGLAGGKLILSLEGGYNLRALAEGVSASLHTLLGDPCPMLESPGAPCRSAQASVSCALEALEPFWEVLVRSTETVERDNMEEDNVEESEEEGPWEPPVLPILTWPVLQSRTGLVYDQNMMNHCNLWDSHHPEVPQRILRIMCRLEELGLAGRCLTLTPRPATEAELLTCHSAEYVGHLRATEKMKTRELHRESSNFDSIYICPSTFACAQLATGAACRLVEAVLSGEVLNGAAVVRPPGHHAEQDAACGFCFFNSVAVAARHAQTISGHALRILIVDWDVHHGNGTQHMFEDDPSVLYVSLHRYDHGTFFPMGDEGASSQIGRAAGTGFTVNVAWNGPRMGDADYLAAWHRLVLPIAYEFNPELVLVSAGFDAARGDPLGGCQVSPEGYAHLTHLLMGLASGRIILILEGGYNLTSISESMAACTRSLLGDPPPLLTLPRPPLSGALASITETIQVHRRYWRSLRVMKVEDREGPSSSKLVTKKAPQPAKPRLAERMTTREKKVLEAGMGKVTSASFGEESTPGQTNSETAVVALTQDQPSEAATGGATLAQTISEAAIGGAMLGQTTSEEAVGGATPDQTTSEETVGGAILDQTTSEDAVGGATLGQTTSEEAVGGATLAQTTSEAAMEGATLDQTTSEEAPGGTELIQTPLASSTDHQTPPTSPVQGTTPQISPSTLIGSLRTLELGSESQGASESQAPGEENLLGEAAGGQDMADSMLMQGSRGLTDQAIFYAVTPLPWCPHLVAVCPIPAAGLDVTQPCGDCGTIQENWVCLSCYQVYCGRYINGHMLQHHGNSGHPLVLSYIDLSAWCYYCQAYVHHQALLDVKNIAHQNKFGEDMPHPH

Histone deacetylase 4 = Histone deacetylase 4 (Homo sapiens, UniProt P56524); test: Inhibition of HDAC4 expressed in 293T cells; type: cell-based
Chain of Histone deacetylase 4 (P56524 whole entry): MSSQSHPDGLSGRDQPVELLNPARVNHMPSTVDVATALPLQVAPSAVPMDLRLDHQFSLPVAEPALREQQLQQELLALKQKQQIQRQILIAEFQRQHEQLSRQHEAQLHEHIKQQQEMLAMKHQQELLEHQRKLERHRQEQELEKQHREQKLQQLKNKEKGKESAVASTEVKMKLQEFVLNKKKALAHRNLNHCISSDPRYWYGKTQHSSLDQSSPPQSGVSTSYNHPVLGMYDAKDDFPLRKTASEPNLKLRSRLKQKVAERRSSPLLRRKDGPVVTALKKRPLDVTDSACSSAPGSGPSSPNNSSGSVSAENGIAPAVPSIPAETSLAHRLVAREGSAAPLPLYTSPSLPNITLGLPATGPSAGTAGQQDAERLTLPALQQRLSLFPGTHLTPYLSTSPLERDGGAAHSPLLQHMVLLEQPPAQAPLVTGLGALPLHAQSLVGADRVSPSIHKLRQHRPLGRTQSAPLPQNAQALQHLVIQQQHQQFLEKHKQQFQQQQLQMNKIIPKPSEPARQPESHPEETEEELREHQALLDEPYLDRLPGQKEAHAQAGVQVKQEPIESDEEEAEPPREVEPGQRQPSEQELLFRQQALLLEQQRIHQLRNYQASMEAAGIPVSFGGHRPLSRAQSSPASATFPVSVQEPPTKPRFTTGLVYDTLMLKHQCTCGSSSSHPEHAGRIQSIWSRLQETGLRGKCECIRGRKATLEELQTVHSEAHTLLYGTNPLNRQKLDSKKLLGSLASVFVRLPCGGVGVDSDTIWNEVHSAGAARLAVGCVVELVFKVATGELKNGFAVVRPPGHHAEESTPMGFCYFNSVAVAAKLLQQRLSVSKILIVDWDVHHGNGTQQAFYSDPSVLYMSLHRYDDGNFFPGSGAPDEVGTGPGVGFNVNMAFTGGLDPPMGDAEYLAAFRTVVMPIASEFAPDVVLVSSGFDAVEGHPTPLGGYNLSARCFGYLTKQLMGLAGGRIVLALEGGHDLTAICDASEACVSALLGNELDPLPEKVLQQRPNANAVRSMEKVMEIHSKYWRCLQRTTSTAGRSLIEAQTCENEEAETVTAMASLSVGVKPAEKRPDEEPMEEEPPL

Chain of Histone deacetylase 1 (Q13547 whole entry): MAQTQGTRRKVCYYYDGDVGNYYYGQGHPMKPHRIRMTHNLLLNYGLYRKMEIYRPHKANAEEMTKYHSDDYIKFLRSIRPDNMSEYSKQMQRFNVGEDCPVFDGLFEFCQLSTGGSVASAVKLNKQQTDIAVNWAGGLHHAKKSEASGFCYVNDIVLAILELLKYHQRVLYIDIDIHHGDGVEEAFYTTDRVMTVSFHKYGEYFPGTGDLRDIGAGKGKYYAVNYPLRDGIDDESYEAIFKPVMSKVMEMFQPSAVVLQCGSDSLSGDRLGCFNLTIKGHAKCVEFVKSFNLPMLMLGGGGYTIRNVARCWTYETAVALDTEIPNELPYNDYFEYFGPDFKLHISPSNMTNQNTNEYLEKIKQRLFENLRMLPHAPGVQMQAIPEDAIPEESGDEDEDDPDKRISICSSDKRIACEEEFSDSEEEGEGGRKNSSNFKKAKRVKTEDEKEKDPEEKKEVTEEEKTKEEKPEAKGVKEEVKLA

SMILES	IC50 (Histone deacetylase 1)	Ratio IC50 [1]	IC50 [2]	IC50 (Histone deacetylase 4)
CC[C@H](C)[C@@H]1NC(=O)C(C)(C)NC(=O)[C@H](CCCCCSSc2ccccn2)NC(=O)[C@H]2CCCN2C1=O	38 nM	–	310 nM	23 nM
CC(C)C[C@@H]1NC(=O)C(C)(C)NC(=O)[C@H](CCCCCSSc2ccccn2)NC(=O)[C@H]2CCCN2C1=O	58 nM	–	230 nM	33 nM
CC1(C)NC(=O)[C@H](CCCCCSSc2ccccn2)NC(=O)[C@H]2CCCN2C(=O)[C@H](Cc2ccccc2)NC1=O (cyclo([Aib]F[dP][Ahp(7-SS(2-pyridyl))]))	39 nM	10.3	404 nM	18 nM
CCCC[C@@H]1NC(=O)C(C)(C)NC(=O)[C@H](CCCCCSSc2ccccn2)NC(=O)[C@H]2CCCN2C1=O	38 nM	–	280 nM	24 nM

Further lines, results first:

IC50 (Histone deacetylase 1)	Ratio IC50 [1]	IC50 [2]	IC50 (Histone deacetylase 4)	SMILES
35 nM	140	4900 nM	20 nM	O=C1N[C@@H]2CCCCCCCCCCCC[C@H](NC2=O)C(=O)N2CCC[C@@H]2C(=O)N[C@H]1CCCCCSSc1ccccn1
94 nM	–	430 nM	52 nM	C[C@@H]1NC(=O)C(C)(C)NC(=O)[C@H](CCCCCSSc2ccccn2)NC(=O)[C@H]2CCCN2C1=O (cyclo(A[dP][Ahp(7-SS(2-pyridyl))][Aib]))

Reference: ChEMBL document CHEMBL1140755, “Interaction of aliphatic cap group in inhibition of histone deacetylases by cyclic tetrapeptides” (Bioorg Med Chem, 2008)
